Measurements published in patent US7135488B2, “Pyrrolyl-thiazole derivatives” (Hoffmann-La Roche Inc., priority 2003, dated 2006).
Like-named read-outs stand apart in the source and are kept apart here.

Assays:
[1] = target: T1, human cannabis CB1 receptor (Homo sapiens, UniProt P21554); test: CB1 receptor affinity, [3H]-CP-55,940 radioligand binding on HEK cell membranes
T1 construct: expressed in transfected cells; host or cells: human embryonic kidney (HEK) cells, Semliki Forest Virus system, membrane preparation
Procedure: The affinity of the compounds of the invention for cannabinoid CB1 receptors was determined using membrane preparations of human embryonic kidney (HEK) cells in which the human cannabis CB1 receptor is transiently transfected using the Semliki Forest Virus system in conjunction with [3H]-CP-55,940 as radioligand. After incubation of a freshly prepared cell membrane preparation with the [3H]-ligand, with or without addition of compounds of the invention, separation of bound and free ligand was performed by filtration over glassfiber filters. Radioactivity on the filter was measured by liquid scintillation counting.

[2] = doses of 5, 10 and 20 mg daily; double blind placebo-controlled study; cited from earlier work

T1 sequence (P21554 whole entry): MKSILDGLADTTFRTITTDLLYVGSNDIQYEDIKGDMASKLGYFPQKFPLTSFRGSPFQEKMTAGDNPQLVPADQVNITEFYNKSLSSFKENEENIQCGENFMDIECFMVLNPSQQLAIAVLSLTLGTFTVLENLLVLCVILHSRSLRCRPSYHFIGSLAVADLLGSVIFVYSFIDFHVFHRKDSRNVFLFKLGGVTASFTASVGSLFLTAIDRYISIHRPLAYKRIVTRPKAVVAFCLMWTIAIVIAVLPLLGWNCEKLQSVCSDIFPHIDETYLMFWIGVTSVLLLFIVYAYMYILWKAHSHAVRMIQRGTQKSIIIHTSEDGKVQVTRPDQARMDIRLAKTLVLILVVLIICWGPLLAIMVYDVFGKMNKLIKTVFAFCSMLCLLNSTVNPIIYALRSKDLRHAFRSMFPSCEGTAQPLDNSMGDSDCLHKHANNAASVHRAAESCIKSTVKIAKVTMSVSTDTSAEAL

| Structure (SMILES) | IC50 [1] | further results |
| --- | --- | --- |
| COc1ccc(-c2nc(-c3cc(C(=O)N4CCCCC4)c(C)n3CC3CCCCC3)cs2)cc1 [Example 311, {1-Cyclohexylmethyl-5-[2-(4-methoxy-phenyl)-thiazol-4-yl]-2-methyl-1H-pyrrol-3-yl}-piperidin-1-yl-methanone] | < 2000 nM | – |
| COc1ccc(-c2nc(-c3cc(C(=O)NC4CCCCC4)c(C)n3CC3CCCCC3)cs2)cc1 [Example 356, Cyclohexylmethyl-5-[2-(4-methoxy-phenyl)-thiazol-4-yl]-2-methyl-1H-pyrrole-3-carboxylic acid cyclohexylamide] | < 2000 nM | – |
| COc1ccc(-c2nc(-c3cc(C(=O)NCc4ccccn4)c(C)n3CC3CCCCC3)cs2)cc1 [Example 305, Cyclohexylmethyl-5-[2-(4-methoxy-phenyl)-thiazol-4-yl]-2-methyl-1H-pyrrole-3-carboxylic acid (pyridin-2-ylmethyl)-amide] | < 2000 nM | – |
| CCCCNC(=O)c1cc(-c2csc(-c3ccc(OC)cc3)n2)n(Cc2ccccc2)c1C [Example 333, Benzyl-5-[2-(4-methoxy-phenyl)-thiazol-4-yl]-2-methyl-1H-pyrrole-3-carboxylic acid butylamide] | < 2000 nM | – |
| CCCCNC(=O)c1cc(-c2csc(-c3ccc([N+](=O)[O-])cc3)n2)n(CC2CCCCC2)c1C [Example 1, Cyclohexylmethyl-2-methyl-5-[2-(4-nitro-phenyl)-thiazol-4-yl]-1H-pyrrole-3-carboxylic acid butylamide] | – | melting point: 184 to 187 °C |
| COc1ccc(-c2nc(-c3cc(C(=O)Nc4ccccc4)c(C)n3CC3CCCCC3)cs2)cc1 [Example 315, Cyclohexylmethyl-5-[2-(4-methoxy-phenyl)-thiazol-4-yl]-2-methyl-1H-pyrrole-3-carboxylic acid phenylamide] | < 2000 nM | – |
| CCCCNC(=O)c1cc(-c2csc(-c3ccc(OC)cc3)n2)n(Cc2ccccn2)c1C [Example 371, 5-[2-(4-Methoxy-phenyl)-thiazol-4-yl]-2-methyl-1-pyridin-2-ylmethyl-1H-pyrrole-3-carboxylic acid butylamide] | – | IC50 ([1]; membranes of HEK cells transiently transfected with human CB1 receptor, radioligand [3H]-CP-55,940, read-out: IC50 (affinity for the CB1 receptor)): < 2000 nM |
| CCCCNC(=O)c1cc(-c2csc(C3CCCCC3)n2)n(CC2CCCCC2)c1C [Example 375, Cyclohexylmethyl-5-(2-cyclohexyl-thiazol-4-yl)-2-methyl-1H-pyrrole-3-carboxylic acid butylamide] | < 2000 nM | – |
| CCCCNC(=O)c1cc(-c2csc(-c3ccc4c(c3)OCO4)n2)n(CC2CCCCC2)c1C [Example 340, 5-(2-Benzo[1,3]dioxol-5-yl-thiazol-4-yl)-1-cyclohexylmethyl-2-methyl-1H-pyrrole-3-carboxylic acid butylamide] | < 2000 nM | – |
| Cc1c(C(=O)NN2CCCCC2)nn(-c2ccc(Cl)cc2Cl)c1-c1ccc(Cl)cc1 [SR 141716, Rimonabant] | – | body weight compared to placebo [2]: significantly reduced body weight |
| CCCCNC(=O)c1cc(-c2csc(-c3ccc(OC)cc3)n2)n(CC2CCCCC2)c1C [Example 8, Cyclohexylmethyl-5-[2-(4-methoxy-phenyl)-thiazol-4-yl]-2-methyl-1H-pyrrole-3-carboxylic acid butylamide] | < 2000 nM | – |
| COc1ccc(-c2nc(-c3cc(C(=O)Nc4ncccn4)c(C)n3CC3CCCCC3)cs2)cc1 [Example 324, Cyclohexylmethyl-5-[2-(4-methoxy-phenyl)-thiazol-4-yl]-2-methyl-1H-pyrrole-3-carboxylic acid pyrimidin-2-ylamide] | < 2000 nM | – |
| COc1ccc(-c2nc(-c3cc(C(=O)NN4CCCCC4)c(C)n3CC3CCCCC3)cs2)cc1 [Example 299, Cyclohexylmethyl-5-[2-(4-methoxy-phenyl)-thiazol-4-yl]-2-methyl-1H-pyrrole-3-carboxylic acid piperidin-1-ylamide] | < 2000 nM | – |
